# Experimental data as given in ChEMBL document CHEMBL3797052 (Eur J Med Chem, 2016).
# Assays:
# Format in all cases: functional
# [1] = system: MDA-MB-435; assay: Antiproliferative activity against human MDA-MB-435 cells assessed as cell growth at 10^-7 M after 48 hrs by sulforhodamine B assay; details: MDA-MB-435, 48 h, read-out: Activity
# [2] = Antiproliferative activity against human SF268 cells assessed as cell growth at 10^-7 M after 48 hrs by sulforhodamine B assay; details: SF-268, 48 h, read-out: Activity
# [3] = system: NCI-H23; assay: Antiproliferative activity against human NCI-H23 cells assessed as growth inhibition after 48 hrs by sulforhodamine B assay; details: NCI-H23, 48 h
# [4] = Antiproliferative activity against human PC3 cells assessed as cell growth at 10^-6 M after 48 hrs by sulforhodamine B assay; details: PC-3, 48 h, read-out: Activity
# [5] = system: EKVX; assay: Antiproliferative activity against human EKVX cells assessed as cell growth at 10^-7 M after 48 hrs by sulforhodamine B assay; details: read-out: Activity
# [6] = system: T47D; assay: Antiproliferative activity against human T47D cells assessed as cell growth at 10^-4 M after 48 hrs by sulforhodamine B assay; details: read-out: Activity
# [7] = system: K562; assay: Antiproliferative activity against human K562 cells assessed as cell growth at 10^-6 M after 48 hrs by sulforhodamine B assay; details: K562, 48 h, read-out: Activity
# [8] = Antiproliferative activity against human DU145 cells assessed as cell growth at 10^-8 M after 48 hrs by sulforhodamine B assay; details: DU-145, 48 h, read-out: Activity
# [9] = Antiproliferative activity against human OVCAR4 cells assessed as growth inhibition after 48 hrs by sulforhodamine B assay; details: OVCAR-4, 48 h
# [10] = Antiproliferative activity against human UACC257 cells assessed as growth inhibition after 48 hrs by sulforhodamine B assay; details: UACC-257, 48 h; for CC50: read-out: LC50 (the source's name)
# [11] = system: MDA-MB-435; assay: Antiproliferative activity against human MDA-MB-435 cells assessed as growth inhibition after 48 hrs by sulforhodamine B assay; details: MDA-MB-435, 48 h; for CC50: read-out: LC50 (the source's name)
# [12] = Antiproliferative activity against human RPMI8226 cells assessed as growth inhibition after 48 hrs by sulforhodamine B assay; details: RPMI-8226, 48 h
# [13] = Antiproliferative activity against human HL-60(TB) cells assessed as cell growth at 10^-8 M after 48 hrs by sulforhodamine B assay; details: HL-60, 48 h, read-out: Activity
# [14] = Antiproliferative activity against human SF539 cells assessed as cell growth at 10^-4 M after 48 hrs by sulforhodamine B assay; details: SF-539, 48 h, read-out: Activity
# [15] = Antiproliferative activity against human HOP62 cells assessed as cell growth at 10^-7 M after 48 hrs by sulforhodamine B assay; details: HOP-62, 48 h, read-out: Activity
# [16] = Antiproliferative activity against human SNB19 cells assessed as cell growth at 10^-7 M after 48 hrs by sulforhodamine B assay; details: SNB-19, 48 h, read-out: Activity
# [17] = Antiproliferative activity against human Caki1 cells assessed as cell growth at 10^-8 M after 48 hrs by sulforhodamine B assay; details: CAKI-1, 48 h, read-out: Activity
# [18] = Antiproliferative activity against human Caki1 cells assessed as cell growth at 10^-4 M after 48 hrs by sulforhodamine B assay; details: CAKI-1, 48 h, read-out: Activity
# [19] = Antiproliferative activity against human RPMI8226 cells assessed as cell growth at 10^-4 M after 48 hrs by sulforhodamine B assay; details: RPMI-8226, 48 h, read-out: Activity
# [20] = Antiproliferative activity against human HCT116 cells assessed as cell growth at 10^-8 M after 48 hrs by sulforhodamine B assay; details: HCT-116, 48 h, read-out: Activity
# [21] = system: NCI-H522; assay: Antiproliferative activity against human NCI-H522 cells assessed as growth inhibition after 48 hrs by sulforhodamine B assay; details: NCI-H522, 48 h
# [22] = Antiproliferative activity against human HCT116 cells assessed as cell growth at 10^-7 M after 48 hrs by sulforhodamine B assay; details: HCT-116, 48 h, read-out: Activity
# [23] = Antiproliferative activity against human SW620 cells assessed as cell growth at 10^-4 M after 48 hrs by sulforhodamine B assay; details: SW-620, 48 h, read-out: Activity
# [24] = Antiproliferative activity against human IGROV1 cells assessed as cell growth at 10^-6 M after 48 hrs by sulforhodamine B assay; details: IGROV-1, 48 h, read-out: Activity
# [25] = Antiproliferative activity against human OVCAR8 cells assessed as cell growth at 10^-8 M after 48 hrs by sulforhodamine B assay; details: OVCAR-8, 48 h, read-out: Activity
# [26] = Antiproliferative activity against human RPMI8226 cells assessed as cell growth at 10^-8 M after 48 hrs by sulforhodamine B assay; details: RPMI-8226, 48 h, read-out: Activity
# [27] = Antiproliferative activity against human HCC2998 cells assessed as cell growth at 10^-8 M after 48 hrs by sulforhodamine B assay; details: HCC 2998, 48 h, read-out: Activity
# [28] = Antiproliferative activity against human OVCAR5 cells assessed as cell growth at 10^-7 M after 48 hrs by sulforhodamine B assay; details: OVCAR-5, 48 h, read-out: Activity
# [29] = Antiproliferative activity against human SW620 cells assessed as cell growth at 10^-6 M after 48 hrs by sulforhodamine B assay; details: SW-620, 48 h, read-out: Activity
# [30] = Antiproliferative activity against human MOLT4 cells assessed as cell growth at 10^-7 M after 48 hrs by sulforhodamine B assay; details: MOLT-4, 48 h, read-out: Activity
# [31] = Antiproliferative activity against human HCT116 cells assessed as growth inhibition after 48 hrs by sulforhodamine B assay; details: HCT-116, 48 h
# [32] = system: CCRF-CEM; assay: Antiproliferative activity against human CCRF-CEM cells assessed as growth inhibition after 48 hrs by sulforhodamine B assay; details: for CC50: read-out: LC50 (the source's name)
# [33] = system: SK-MEL-2; assay: Antiproliferative activity against human SK-MEL-2 cells assessed as growth inhibition after 48 hrs by sulforhodamine B assay; details: SK-MEL-2, 48 h; for CC50: read-out: LC50 (the source's name)
# [34] = system: ACHN; assay: Antiproliferative activity against human ACHN cells assessed as cell growth at 10^-6 M after 48 hrs by sulforhodamine B assay; details: read-out: Activity
# [35] = system: MDA-MB-435; assay: Antiproliferative activity against human MDA-MB-435 cells assessed as cell growth at 10^-8 M after 48 hrs by sulforhodamine B assay; details: MDA-MB-435, 48 h, read-out: Activity
# [36] = system: SK-MEL-5; assay: Antiproliferative activity against human SK-MEL-5 cells assessed as growth inhibition after 48 hrs by sulforhodamine B assay; details: SK-MEL-5, 48 h
# [37] = read-out: LC50 (the source's name)
structure (smiles),measurement,setting,value
CNC(=O)c1cc(Oc2ccc3nc(NC(=O)Nc4ccc(Cl)c(C(F)(F)F)c4)sc3c2)ccn1,growth at 0.1 µM,[1],92%
same,growth at 0.1 µM,[2],101%
same,GI50,[3],2.48 µM
same,LC50,[3],> 100 µM
same,TGI,[3],8.17 µM
same,growth at 1 µM,[4],71%
same,growth at 0.1 µM,[5],94%
same,growth at 100 µM,[6],-16%
same,growth at 1 µM,[7],96%
same,growth at 0.01 µM,[8],109%
same,GI50,[9],1.59 µM
same,TGI,[9],3.31 µM
same,GI50,[10],3.37 µM
same,TGI,[10],> 100 µM
same,CC50,[10],> 100 µM
same,GI50,[11],1.9 µM
same,CC50,[11],> 100 µM
same,GI50,[12],2.22 µM
same,LC50,[12],> 100 µM
same,growth at 0.01 µM,[13],101%
same,growth at 100 µM,[14],-49%
same,growth at 0.1 µM,[15],95%
same,growth at 0.1 µM,[16],100%
same,growth at 0.01 µM,[17],87%
same,growth at 100 µM,[18],17%
same,growth at 100 µM,[19],46%
same,growth at 0.01 µM,[20],101%
same,GI50,[21],2.54 µM
same,LC50 (concentration killing 50% of cells),[21],> 100 µM
same,TGI,[21],> 100 µM
same,growth at 0.1 µM,[22],99%
same,growth at 100 µM,[23],42%
same,growth at 1 µM,[24],88%
same,growth at 0.01 µM,[25],105%
same,growth at 0.01 µM,[26],100%
same,growth at 0.01 µM,[27],107%
same,growth at 0.1 µM,[28],95%
same,growth at 1 µM,[29],91%
same,growth at 0.1 µM,[30],105%
same,GI50,[31],1.89 µM
same,LC50 (concentration killing 50% of the starting cells),[31],> 100 µM
same,TGI,[31],5.39 µM
same,TGI,[32],> 100 µM
same,CC50,[32],> 100 µM
same,GI50,[33],5.69 µM
same,TGI,[33],47 µM
same,CC50,[33],> 100 µM
same,growth at 1 µM,[34],93%
same,growth at 0.01 µM,[35],91%
CNC(=O)c1cc(Oc2ccc(NC(=O)Nc3ccc(Cl)c(C(F)(F)F)c3)cc2)ccn1 [SORAFENIB],GI50,[3],2 µM
same,TGI,[3],5.01 µM
same,TGI,[36],3.16 µM
same,CC50,[36]; [37],5.01 µM
same,GI50,[9],3.16 µM
same,TGI,[9],12.6 µM
same,CC50,[9]; [37],100 µM
same,GI50,[10],2 µM
same,TGI,[10],5.01 µM
same,CC50,[10],20 µM
same,TGI,[11],3.98 µM
same,CC50,[11],10 µM
same,TGI,[12],6.31 µM
same,GI50,[21],2 µM
same,TGI,[21],6.31 µM
same,TGI,[31],3.98 µM
same,GI50,[32],2 µM
same,TGI,[32],100 µM
same,CC50,[32],100 µM
same,GI50,[33],2 µM
same,TGI,[33],3.16 µM
same,CC50,[33],6.31 µM
